# Laboratory results published in patent publication US20230271770A1, “Anti-Viral Pharmaceutical Formulations Administered Via Devices for Lung Targeted Delivery” (priority 2020, published 2023).
# Tests used:
# [1] = human, in vivo, po; cited from earlier work
# [2] = HCQ particles typically inhaled to treat asthma; cited from earlier work
# [3] = parameters: species or system mice; conditions: mouse, in vivo, 10 min
# Experimental: Mice can breathe the aerosol of drug products. A breathing tank is used for mice to breathe the aerosol of the drug product, such as HCQ. The drug product is administered through the specially designed stainless steel breathing tank 1800, for example as shown in FIG. 18.
# The exposure tank size is designed such that the total breathing volume of all eight mice during a 10-minute breathing treatment (1.8 L) is less than 10% of the tank size (21.5 L). The internal wall of the tank is electrically polished to minimize its adsorption of the study drug. Eight mice were mounted to the tank with four mice on each side using small animal restraints. At the start of each treatment session, an effective amount of the drug was administered into pre-cleaned tank. A stirring fan installed inside the tank was set to promote circulation of the pharmaceutical agent. Specifically, the fan was set at 400 RPM in this study and turned on before the pharmaceutical agent was administered. Thirty seconds after the last spray (t=0 minute), eight mice were mounted to the inhalation chamber to breathe the air from inside the breathing tank for 10 minutes, and then were taken off the breathing tank. Samples from the mice were taken, starting immediately after removal from the tank, to perform pharmacokinetic studies. […]
# [4] = Cascade Impactor (Andersen) test, MDI actuator for stand-alone (handheld) use; format: physicochemical
# Source text: The particle size of an inhalation drug may be measured by an instrument called a Cascade Impactor, which consists of multiple discs. The size of the discs is graduated to properly determine the size of the particulate matter at various stages of the Cascade Impactor, which each represent the drug delivery to different portions of the entire respiratory tract. The Cascade Impactor collects samples of the drug in a graduated manner on each disc such that the average particle size of the collected drugs can be measured for each stage.
# As discussed above, the particle size of an inhalation drug, namely the API, can be measured by a Cascade Impactor (Westech Instruments), which consists of multiple stages (0-7). The particle sizes at each stage are listed in Table 8, which represents the drug delivery to different portions of the entire respiratory tract using a stand-alone MDI actuator, for example actuator 500, discussed above.
# As described above, the disclosed MDI actuator nozzles may include an inner diameter that is optimized to dispense fine API particle sizes, such as API particles having a diameter of about 1.1 μm or less. Table 12, below, outlines a study of the amount percentage (%) of fine API particles having particle diameters of less than about 1.1 μm versus nozzle inner diameter size of the disclosed MDI actuators, for example MDI actuator 500. […] The general components of MDI actuator 500 was utilized, but different nozzle inner diameter sizes were tested in this study. In particular, 3 different MDI actuators were tested: (1) MDI actuator having 0.42 mm nozzle inner diameter (“MDI Actuator A”), (2) MDI actuator having 0.28 mm nozzle inner diameter (“MDI Actuator B”), and (3) MDI actuator having 0.20 mm nozzle inner diameter (“MDI Actuator C”).
# [5] = In-line Cascade Impactor (Andersen) evaluation, MDI actuator through elbow connection and ventilator tubing; format: physicochemical; parameters: Delivered <1.1 mcm / Delivered <4.7 mcm: unit not given here; conditions: 5% EtOH; for Delivered <4.7 mcm: Plate 3~5
# Experimental: An example of a ventilator device, for example ventilator device 1700A, was tested and compared to a self-administrable, handheld MDI to determine the target site delivery efficiency in the ventilator circuit as compared to the MDI delivery efficiency without the ventilator circuit (e.g. no elbow connector or ventilator tubing).
# Prime HCQ valve by discharging a predetermined number of actuations to waste. Discharge 10 actuations with actuator H004B-a into the cascade impaction sampling apparatus through an elbow connection w/inner channel and an in-line tubing (55 cm long).
# Prime HCQ valve by discharging a predetermined number of actuations to waste. Discharge 10 actuations with actuator H004B-c into the cascade impaction sampling apparatus through an elbow connection with an inner channel and an in-line tubing (55 cm long).
# Prime HCQ valve by discharging a predetermined number of actuations to waste. […]
structure (smiles),measurement,setting,value
"CCN(CCO)CCCC(C)Nc1ccnc2cc(Cl)ccc12 (stereo not drawn) [HCQ, hydroxychloroquine]",BA,[1],74%
same,share of tablet dose distributed to red blood cells or other protein in blood,[1],approximately 0.25%
same,share of tablet dose not absorbed or initially metabolized in liver,[1],approximately 26%
same,mean HCQ particle size,[2],3.2 μm
same,appearance of mice during and after treatment,[3],"appeared healthy, with no signs of distress"
same,"EPM (6-filter; P6-F, <1.1 μm for Alveoli), Compared to strength (delivery rate)",[4]; Actuator A (nozzle 0.42 mm),21.6%
same,"EPM (6-filter; P6-F, <1.1 μm for Alveoli), Compared to strength (delivery rate)",[4]; Actuator B (nozzle 0.28 mm),39.7%
same,"EPM (6-filter; P6-F, <1.1 μm for Alveoli), Compared to strength (delivery rate)",[4]; Actuator C (nozzle 0.20 mm),about 53.9%
same,Delivery Rate,"[4]; Alveoli, <1.1 mcm, actuator O-0.20, 5% EtOH, 200 mcg",44.5%
same,Delivery Rate,"[4]; Alveoli, <1.1 mcm, actuator O-0.20, 5% EtOH, 200 mcg (Table 21)",44.5%
same,Delivered <1.1 mcm,"[4]; Alveoli, actuator O-0.20, 5% EtOH, 200 mcg",89
same,Delivered <1.1 mcm,"[4]; Alveoli, actuator O-0.20, 5% EtOH, 200 mcg (Table 21)",89
same,Delivery Rate,"[4]; Plate 3~5, <4.7 mcm, actuator O-0.20, 5% EtOH, 200 mcg",50.7%
same,Delivered <4.7 mcm,"[4]; Plate 3~5, actuator O-0.20, 5% EtOH, 200 mcg",101.3
same,Delivery Rate,"[5]; Alveoli, <1.1 mcm, in-Linc Tube (15 cm), HCQB-c, connection w/o inner channel, 200 mcg (#6)",34.2%
same,Delivery Rate,"[5]; Alveoli, <1.1 mcm, in-Line Tube (15 cm), HCQB-a, connection w/o inner channel, 200 mcg",32.2%
same,Delivery Rate,"[5]; Alveoli, <1.1 mcm, in-Line Tube (15 cm), HCQB-b, connection w/o inner channel, 200 mcg",31.3%
same,Delivery Rate,"[5]; Alveoli, <1.1 mcm, in-Line Tube (15 cm), HCQB-c, connection w/o inner channel, 200 mcg (#4)",43.3%
same,Delivery Rate,"[5]; Alveoli, <1.1 mcm, in-Line Tube (15 cm), HCQB-d, connection w/o inner channel, Ave, 200 mcg",36.9%
same,Delivery Rate,"[5]; Alveoli, <1.1 mcm, in-Line Tube (15 cm), HCQB-f, connection w/o inner channel, 200 mcg",23.2%
same,Delivery Rate,"[5]; Alveoli, <1.1 mcm, in-Line Tube (15 cm), HCQB-g, connection w/inner channel, 200 mcg",34.0%
same,Delivery Rate,"[5]; Alveoli, <1.1 mcm, in-Line Tube (15 cm), HCQB-g, connection w/o inner channel, 200 mcg",31.5%
same,Delivery Rate,"[5]; Alveoli, <1.1 mcm, in-Line Tube (15 cm), HCQB-h, connection w/ inner channel, 200 mcg",35.9%
same,Delivery Rate,"[5]; Alveoli, <1.1 mcm, in-Line Tube (15 cm), HCQB-h, connection w/o inner channel, 200 mcg",31.1%
same,Delivery Rate,"[5]; Alveoli, <1.1 mcm, in-Line Tube (15 cm), HCQB-i, connection w/inner channel, 200 mcg",27.5%
same,Delivery Rate,"[5]; Alveoli, <1.1 mcm, in-Line Tube (15 cm), HCQB-i, connection w/o inner channel, 200 mcg",37.9%
same,Delivery Rate,"[5]; Alveoli, <1.1 mcm, in-Line Tube (15 cm), HCQB-j, connection w/o inner channel, 200 mcg",29.1%
same,Delivery Rate,"[5]; Alveoli, <1.1 mcm, in-Line Tube (55 cm), HCQB-a, connection w/inner channel, 200 mcg",19.3%
same,Delivery Rate,"[5]; Alveoli, <1.1 mcm, in-Line Tube (55 cm), HCQB-b, connection w/inner channel, 200 mcg",26.9%
same,Delivery Rate,"[5]; Alveoli, <1.1 mcm, in-Line Tube (55 cm), HCQB-c, connection w/inner channel, Ave, 200 mcg",37.9%
same,Delivery Rate,"[5]; Alveoli, <1.1 mcm, in-Line Tube (55 cm), HCQB-d, connection w/inner channel, 200 mcg",26.4%
same,Delivery Rate,"[5]; Alveoli, <1.1 mcm, in-Line Tube (55 cm), HCQB-f, connection w/inner channel, Ave, 200 mcg",34.7%
same,Delivery Rate,"[5]; Alveoli, <1.1 mcm, in-Line Tube (55 cm), HCQB-j, connection w/ inner channel, 200 mcg",30.3%
same,Delivered <1.1 mcm,"[5]; Alveoli, in-Linc Tube (15 cm), HCQB-c, connection w/o inner channel, 200 mcg (#6)",68.4
same,Delivered <1.1 mcm,"[5]; Alveoli, in-Line Tube (15 cm), HCQB-a, connection w/o inner channel, 200 mcg",64.4
same,Delivered <1.1 mcm,"[5]; Alveoli, in-Line Tube (15 cm), HCQB-b, connection w/o inner channel, 200 mcg",62.6
same,Delivered <1.1 mcm,"[5]; Alveoli, in-Line Tube (15 cm), HCQB-c, connection w/o inner channel, 200 mcg (#4)",86.6
same,Delivered <1.1 mcm,"[5]; Alveoli, in-Line Tube (15 cm), HCQB-d, connection w/o inner channel, Ave, 200 mcg",73.8
same,Delivered <1.1 mcm,"[5]; Alveoli, in-Line Tube (15 cm), HCQB-f, connection w/o inner channel, 200 mcg",46.3
same,Delivered <1.1 mcm,"[5]; Alveoli, in-Line Tube (15 cm), HCQB-g, connection w/inner channel, 200 mcg",68.0
same,Delivered <1.1 mcm,"[5]; Alveoli, in-Line Tube (15 cm), HCQB-g, connection w/o inner channel, 200 mcg",63.0
same,Delivered <1.1 mcm,"[5]; Alveoli, in-Line Tube (15 cm), HCQB-h, connection w/ inner channel, 200 mcg",71.7
same,Delivered <1.1 mcm,"[5]; Alveoli, in-Line Tube (15 cm), HCQB-h, connection w/o inner channel, 200 mcg",62.1
same,Delivered <1.1 mcm,"[5]; Alveoli, in-Line Tube (15 cm), HCQB-i, connection w/inner channel, 200 mcg",55.0
same,Delivered <1.1 mcm,"[5]; Alveoli, in-Line Tube (15 cm), HCQB-i, connection w/o inner channel, 200 mcg",75.7
same,Delivered <1.1 mcm,"[5]; Alveoli, in-Line Tube (15 cm), HCQB-j, connection w/o inner channel, 200 mcg",58.1
same,Delivered <1.1 mcm,"[5]; Alveoli, in-Line Tube (55 cm), HCQB-a, connection w/inner channel, 200 mcg",38.5
same,Delivered <1.1 mcm,"[5]; Alveoli, in-Line Tube (55 cm), HCQB-b, connection w/inner channel, 200 mcg",53.8
same,Delivered <1.1 mcm,"[5]; Alveoli, in-Line Tube (55 cm), HCQB-c, connection w/inner channel, Ave, 200 mcg",75.8
same,Delivered <1.1 mcm,"[5]; Alveoli, in-Line Tube (55 cm), HCQB-d, connection w/inner channel, 200 mcg",52.8
same,Delivered <1.1 mcm,"[5]; Alveoli, in-Line Tube (55 cm), HCQB-f, connection w/inner channel, Ave, 200 mcg",69.4
same,Delivered <1.1 mcm,"[5]; Alveoli, in-Line Tube (55 cm), HCQB-j, connection w/ inner channel, 200 mcg",60.5
same,Delivery Rate,"[5]; Plate 3~5, <4.7 mcm, in-Line Tube (15 cm), HCQB-g, connection w/inner channel, 200 mcg",30.5%
same,Delivery Rate,"[5]; Plate 3~5, <4.7 mcm, in-Line Tube (15 cm), HCQB-h, connection w/inner channel, 200 mcg",25.8%
same,Delivery Rate,"[5]; Plate 3~5, <4.7 mcm, in-Line Tube (15 cm), HCQB-i, connection w/inner channel, 200 mcg",22.8%
same,Delivery Rate,"[5]; Plate 3~5, <4.7 mcm, in-Line Tube (55 cm), HCQB-a, connection w/inner channel, 200 mcg",13.3%
same,Delivery Rate,"[5]; Plate 3~5, <4.7 mcm, in-Line Tube (55 cm), HCQB-b, connection w/inner channel, 200 mcg",21.3%
same,Delivery Rate,"[5]; Plate 3~5, <4.7 mcm, in-Line Tube (55 cm), HCQB-c, connection w/inner channel, 200 mcg",29.0%
same,Delivery Rate,"[5]; Plate 3~5, <4.7 mcm, in-Line Tube (55 cm), HCQB-d, connection w/inner channel, 200 mcg",23.3%
same,Delivery Rate,"[5]; Plate 3~5, <4.7 mcm, in-Line Tube (55 cm), HCQB-e, connection w/inner channel, 200 mcg",29.0%
same,Delivery Rate,"[5]; Plate 3~5, <4.7 mcm, in-Line Tube (55 cm), HCQB-f, connection w/inner channel, 200 mcg",28.3%
same,Delivery Rate,"[5]; Plate 3~5, <4.7 mcm, in-Line Tube (55 cm), HCQB-j, connection w/inner channel, 200 mcg",20.0%
same,Delivered <4.7 mcm,"[5]; in-Line Tube (15 cm), HCQB-g, connection w/inner channel, 200 mcg",60.9
same,Delivered <4.7 mcm,"[5]; in-Line Tube (15 cm), HCQB-h, connection w/inner channel, 200 mcg",51.6
same,Delivered <4.7 mcm,"[5]; in-Line Tube (15 cm), HCQB-i, connection w/inner channel, 200 mcg",45.5
same,Delivered <4.7 mcm,"[5]; in-Line Tube (55 cm), HCQB-a, connection w/inner channel, 200 mcg",26.5
same,Delivered <4.7 mcm,"[5]; in-Line Tube (55 cm), HCQB-b, connection w/inner channel, 200 mcg",42.6
same,Delivered <4.7 mcm,"[5]; in-Line Tube (55 cm), HCQB-c, connection w/inner channel, 200 mcg",57.9
same,Delivered <4.7 mcm,"[5]; in-Line Tube (55 cm), HCQB-d, connection w/inner channel, 200 mcg",46.6
same,Delivered <4.7 mcm,"[5]; in-Line Tube (55 cm), HCQB-e, connection w/inner channel, 200 mcg",57.9
same,Delivered <4.7 mcm,"[5]; in-Line Tube (55 cm), HCQB-f, connection w/inner channel, 200 mcg",56.5
same,Delivered <4.7 mcm,"[5]; in-Line Tube (55 cm), HCQB-j, connection w/inner channel, 200 mcg",39.9
